From doi:10.1101/2020.09.01.277368v1, “Disulfiram inhibits M. tuberculosis growth by altering methionine pool, redox status and host-immune response” (biorxiv, 2020)

Target: T1, MetA (HSAT, homoserine acetyl transferase, Rv3341) (Mycobacterium tuberculosis, UniProt P9WJY9)
T1 construct: gene metXA
Assay: endpoint DTNB CoA release assay
Assay type: biochemical

T1 sequence (P9WJY9 whole entry, looked up): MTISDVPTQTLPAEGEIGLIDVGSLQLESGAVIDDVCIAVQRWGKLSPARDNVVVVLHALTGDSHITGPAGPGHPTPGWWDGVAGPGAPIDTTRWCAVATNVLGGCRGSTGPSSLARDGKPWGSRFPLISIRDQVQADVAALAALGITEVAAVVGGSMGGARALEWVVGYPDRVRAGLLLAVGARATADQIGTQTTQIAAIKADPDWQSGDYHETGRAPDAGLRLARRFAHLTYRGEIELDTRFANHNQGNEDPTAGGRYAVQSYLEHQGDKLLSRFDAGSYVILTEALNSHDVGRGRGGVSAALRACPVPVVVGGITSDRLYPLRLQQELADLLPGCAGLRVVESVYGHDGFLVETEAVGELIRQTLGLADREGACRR

SMILES	% inhibition at 100 μM [%]
Oc1cc(CNC2CCCCC2)c(O)cc1CNC1CCCCC1 [NSC48443]	> 50
COc1cc(-c2ccc(Nc3ccccc3C(=O)O)c(OC)c2)ccc1Nc1ccccc1C(=O)O [NSC73735]	> 50
CCOC(=O)/C(C#N)=C1\SS/C(=C(/C#N)C(=O)OCC)S1 [NSC98363]	> 50
O=Nc1c(-c2cccc([N+](=O)[O-])c2)nc2ncccn12 [NSC369066]	> 50
Cc1ccc(S(=O)(=O)SC/C=C/CSS(=O)(=O)c2ccc(C)cc2)cc1 [NSC624158]	> 50
C/C(=N\NC(=S)N(C)C)c1ccccn1.[Cu][Br] [NSC635448]	> 50
Oc1cc(-n2cccn2)c(O)cc1-n1cccn1 [NSC645987]	> 50
